From paper PMC8229286, “Pharmacokinetics-Driven Evaluation of the Antioxidant Activity of Curcuminoids and Their Major Reduced Metabolites—A Medicinal Chemistry Approach” (Molecules, 2021)
Converted amounts (≈) assume the structure as drawn. Read-outs that look alike come from different tables or passages of the source.

Key:
[1] = Chemical stability in PBS pH 7.4; conditions: between 0–2 h at 37 °C in PBS, Stable = no chemical change detected during the evaluation time (4 h)
Experimental: (§1) Kinetic solubility was tested with 5% (v/v) DMSO as cosolvent in phosphate buffered saline (PBS, 0.01 M phosphate buffer pH 7.4, 0.138 M NaCl, 0.0027 M KCl, without Ca^2+, Mg^2+) at room temperature for 2 h. Chemical stability was tested with 10% (v/v) DMSO as cosolvent in PBS pH 7.4 at 37 °C for 4 h. Metabolic stability was investigated on human liver microsomes (1 mg/mL), which were preincubated with 25 µM test compounds for 5 min at 37 °C in 0.1 M Tris-HCl buffer, pH 7.4 contained 6.67 mM Na-pyrophosphate, 5.56 mM MgCl2, 5.56 mM glucose-6-phosfate, 4.63 U/mL glucose-6-phosphate dehydrogenase. The reaction was initiated by adding preincubated cofactor (37 °C,10 mM NADPH). After 10, 30, and 60 min incubation at 37 °C, the reaction was stopped by adding equal volume of cooled methanol (−20 °C). The samples were centrifuged at 20,000 g for 5 min. The supernatant and all above described test solutions were analyzed by LC-MS/MS. LC-MS analysis was carried out on an Agilent 1200 liquid chromatography system coupled with an 6410 QQQ-MS (Agilent Technologies, Palo Alto, CA, USA). Analysis was on a Cortecs C18 column (150 × 4.6 mm, 2.7 µm, Waters) at 40 °C, with a mobile phase flow rate of 1.45 mL/min. Composition of eluent A was 0.1% (v/v) trifluoroacetic acid (TFA) in water (pH 1.9). A linear gradient of 0–100% B (acetonitrile (AcN) and water in 95:5 (v/v)) was applied at a range of 0–17 min, then 100% B at 17–22 min. The injection volume was set at 20 µL and chromatograms were registered at 220 ± 4 nm. The MSD operating parameters in ESI positive ionization mode were as follows: scan ion mode (100–800 m/z), drying gas temperature 350 °C, nitrogen flow rate 12 L/min, nebulizer pressure 40 psi, quadrupole temperature 100 °C, capillary voltage 4000 V, fragmentor voltage 135 V.

[2] = DPPH free radical scavenging assay; conditions: 30 min, absorbance 550 nm; average ± S.E.M
Experimental: The DPPH free radical scavenging assay was performed based on the method of Fukumoto et al. with some modification. The measurement was performed on a 96-well microplate. Microdilution series of the samples (0.2 mg/mL stock solution, dissolved in HPLC grade MeOH) were made starting with 100 μL. To each well 100 μL of DPPH reagent (100 μM in HPLC grade MeOH) was added to gain the final volume of 200 μL. The microplates were kept in dark, and the absorbance was measured after 30 min at 550 nm using a FluoStar Optima plate reader (software version 2.20R2, BMG Labtech, Ortenberg, Germany). Methanol was used as blank. The scavenging activity was calculated as Inhibition (%) = (A0 − As)/A0 × 100, and EC50 values were calculated by Graph Pad Prism (GraphPad Software, Inc., La Jolla, CA, USA).

[3] = Experimental logP in octanol-water and toluene-water systems; conditions: for ΔlogPoct_tol: logPo/w − logPtol/w; for logP at 24 h: octanol/water; for logPtol/w: toluene-water, average ± S.E.M, five parallel experiments
Experimental: Lipophilicity measurements of hydrocurcumins were performed by dissolving the compounds in the organic solvents (octanol and toluene) at 1mg/mL concentration and mixing them with water (1:5 and 1:10 ratios, each in five replicates). After 24 h the concentration of the compounds in the aqueous phase were calculated by using a calibration dilution series measured on RP-HPLC system. The concentration of the organic phase was calculated from the concentration of the aqueous phase.

[4] = GI-PAMPA permeability; conditions: for Papp at 4 h, 100 µM: PAMPA, pH 7.4; for GI-PAMPA MR (membrane retention) / GI-PAMPA Pe: PBS pH 7.4, 37 °C, 4 h
Experimental: (§2) BBB and GI permeability was determined by using tissue-specific parallel artificial membrane permeability assay (GI-PAMPA [46], BBB-PAMPA [47]) models. Briefly, a 96-well acceptor plate and a 96-well filter plate were assembled into a sandwich. The hydrophobic filter material of the 96 well filter plate was coated by the mixture of phosphatidylcholine:cholesterol 2:1 (5 µL, 4 % (w/v) in dodecane: GI-PAMPA) or by porcine brain lipid (PBL) (5 µL, 2.6 % (w/v) in dodecane:hexane 25:75 v/v%: BBB-PAMPA). Subsequently, the acceptor wells at the bottom of the sandwich were filled with 300 µL of 10 mM PBS solution with 5% DMSO adjusted to pH 7.4. The donor wells at the top of the sandwich were hydrated with 150 µL of test compound solution. The test compound solutions were prepared in 100 times dilution. Firstly, a 10 mM stock solution was prepared from the corresponding compound in DMSO, then it was diluted with PBS (pH 6.5: GI-PAMPA or pH 7.4: BBB-PAMPA) to get 5% mixture followed by filtration through a MultiScreen Solubility filter plate. The resulting sandwich was then incubated at 37 °C for 4h. After the incubation, PAMPA sandwich plates were separated and compound concentrations in donor and acceptor solutions were investigated by HPLC-DAD. HPLC analyses were performed using a Shimadzu Prominence Modular HPLC system (Shimadzu Corporation, Kyoto, Japan) on a Kinetex® 2.6mm C18 100 Å LC column (30 × 3 mm) at 45 °C. Mobile phase flow rate was 1.1 mL/min using a gradient of AcN and 0.1% (v/v) formic acid in water (from 5% AcN to 95% in 2.5 min). Chromatograms were recorded at the wavelength of 200–500 nm, integration was carried out at the UVmax of each compound. The applied injection volume was 6 μL.

[5] = Metabolic stability in human liver microsomes; conditions: for CLint scaled at 25 µM / half-life at 25 µM: human, human liver microsomes, pH 7.4; for Met.stab. in HLM t1/2: human liver microsomes 1 mg/mL, 25 µM compound, 37 °C, mean ± S.E.M, n = 3; for Met.stab. in HLM Cl'int: intrinsic clearance calculated from in vitro t1/2 data in HLM
Experimental: as §1

[6] = Kinetic solubility in PBS; conditions: for solubility kinetic at 2 h: PBS with 5% (v/v) DMSO, pH 7.4, aqueous with cosolvent or surfactant or cyclodextrin, kinetic from dmso stock; for Kinetic Solubility: after 2 h, at 37 °C in PBS, pH 7.4, mean ± S.E.M, n = 3
Experimental: as §1

[7] = BBB-PAMPA permeability; conditions: for Papp at 4 h, 100 µM: PAMPA
Experimental: as §2

[8] = AAPH assay (oxygen radical absorbance capacity, ORAC); conditions: concentration for 50% antioxidant capacity; average ± S.E.M
Experimental: Antioxidant capacity measurement was carried out on 96-well microplates, based on oxygen radical absorbance capacity (ORAC) assay. A 20 μL aliquot of the sample (6 dilutions with buffer from 10 μg/mL stock solution dissolved in phosphate buffer, containing 1% MeOH), 120 μL of fluorescein (dissolved in phosphate buffer, pH = 7.4, 70 nM final concentration), and 60 μL of 2,2′-azobis(2-methylpropionamidine) dihydrochloride (AAPH, dissolved in phosphate buffer, pH = 7.4, 12 mM final concentration) were pipetted into each well. Each measurement was performed twice in duplicates. Each plate contained six dilutions of trolox as the standard, and phosphate buffer as blank. Flourescence (excitation at 485 nm and emission at 520 nm) was measured over a 3 h period with 1.5-min cycle intervals by a FluoStar Optima plate-reader (BMG Labtech GmbH). The antioxidant capacity was calculated for each concentration with the following formula: antioxidant capacity = (AUCAntioxidant − AUCBlank)/AUCBlank × 100 where AUC is the area under curve obtained for the sample and blank assays. Based on the linear correlation between the concentration of the samples and the antioxidant capacity, IC50 values could be obtained, which define the concentration (in µM) of each compound required to have 50% antioxidant capacity defined by the previous equation.

[9] = parameters: method as in PMID 17999464; conditions: cited from earlier work
[10] = pH 7.4
Experimental: as §1

[11] = pH 7.4; remark: listed apart in the source
Experimental: as §2

[12] = microsomes
Experimental: as §1

Row | Compound | Chemical Stability Shelf-Life [1] | IC50 [2] [µM] | Papp at 4 h, 100 µM [4] [×10⁻⁶ cm/s] | GI-PAMPA MR (membrane retention) [4] [%] | CLint scaled at 25 µM [5] [mL/min/kg] | solubility kinetic at 2 h [6] [µM] | Papp at 4 h, 100 µM [7] [×10⁻⁶ cm/s] | BBB-PAMPA MR (membrane retention) ([7]; PBS pH 6.5→pH 7.4, 37 °C, 4 h) [%] | IC50 [8] [µM] | half-life at 25 µM [5] [h] | GI-PAMPA Pe [4] | other results
1 | COc1cc(CCC(=O)CC(O)CCc2ccc(O)c(OC)c2)ccc1O (stereo not shown) [6HC, hexahydrocurcumin] | Stable ^# | 9.9 ± 0.9 | 0.37 ± 0.02 | 5.0 ± 0.6 | 3.3 | 74.1 ± 0.3 (≈ 27.7 µg/mL) | 1.25 ± 0.01 | 13.3 ± 0.5 | 0.39 ± 0.06 | – | – | ΔlogPoct_tol [3]: 0.46; logP at 24 h [3]: 2.15 ± 0.01; logPtol/w [3]: 1.69 ± 0.03
2 | COc1cc(CCC(O)CC(O)CCc2ccc(O)c(OC)c2)ccc1O (stereo not shown) [8HC, octahydrocurcumin] | Stable ^# | 11.4 ± 1 | 0.24 ± 0.01 | 4.4 ± 0.2 | 1.4 | 72.9 ± 0.9 (≈ 27.4 µg/mL) | 0.97 ± 0.02 | 8.9 ± 1.4 | 0.43 ± 0.11 | 3.86 ± 0.56 | – | ΔlogPoct_tol [3]: 0.75; logP at 24 h [3]: 2.3 ± 0.02; logPtol/w [3]: 1.55 ± 0.14
3 | COc1cc(CCC(O)CC(O)CCc2ccc(O)cc2)ccc1O (stereo not shown) [8HDC, octahydro-demethoxycurcumin] | Stable ^# | 33.1 ± 0.8 | – | 1.7 ± 0.3 | 0.9 | 68.7 ± 0.7 (≈ 23.8 µg/mL) | 0.53 ± 0.07 | 14.9 ± 1.9 | 0.49 ± 0.29 | 6.08 ± 0.957 | 2.2 ± 0.1 * ·10^−7 cm/s | –
4 | COc1cc(/C=C/C(O)=C/C(=O)/C=C/c2ccc(O)cc2)ccc1O [DMC, demethoxycurcumin, reference compound] | 22.1 ± 0.2 min | 16.8 ± 0.7 | 1.06 ± 0.06 | 85.6 ± 0.5 | 8.3 | 5.7 ± 0.9 (≈ 1.93 µg/mL) | – | 98.3 ± 0.1 | 0.49 ± 0.03 | 0.63 ± 0.015 | – | –
5 | Cc1c(C)c2c(c(C)c1O)CCC(C)(C(=O)O)O2 (stereo not shown) [Trolox, reference compound] | – | 5.6 ± 0.1 | – | – | – | – | – | – | 2.02 ± 0.13 | – | – | –
6 | Curcumin [reference compound] | 29.7 ± 0.6 min | 11.8 ± 0.1 | – | 90.6 ± 0.3 | – | – | – | 96.7 ± 0.4 | 0.32 ± 0.1 | – | 5.0 ± 0.4 ·10^−7 cm/s | Safe human consumption amount [9]: up to 12 g/day; Met.stab. in HLM t1/2 [5]: 1.18 ± 0.085 h; Met.stab. in HLM Cl'int [5]: 4.5 ± 0.3 mL/min/kg; Major metabolite identified in the microsomal system (LC-MS) ([5]; semi-qualitative, by m/z change and retention time, Table S1): 6HC as a major metabolite; Kinetic Solubility [6]: 3.1 ± 0.1 µM
7 | tetrahydro-demethoxycurcumin [4HDC] | Stable ^# | 14.2 ± 0.5 | – | 12.9 ± 1.6 | – | – | – | 40.9 ± 1.5 | 0.41 ± 0.03 | – | 20.4 ± 0.3 * ·10^−7 cm/s | Met.stab. in HLM t1/2 [5]: 0.0722 ± 0.00033 h; Met.stab. in HLM Cl'int [5]: 72.0 ± 0.4 mL/min/kg; Kinetic Solubility [6]: 69.5 ± 3.1 µM; BBB-PAMPA Pe ([7]; PBS pH 6.5→pH 7.4, 37 °C, 4 h): 20.7 ± 0.5 ·10^−7 cm/s
8 | tetrahydrocurcumin [4HC] | – | 9.8 ± 0.2 | – | – | – | – | – | – | 0.43 ± 0.04 | – | – | Kinetic Solubility [10]: 70.3 ± 0.2 µM; GI-PAMPA Pe ([11]; 4 h, 100 µM): 30.3 ± 1.3 * ·10^−7 cm/s; GI-PAMPA MR (membrane retention) [11]: 13.3 ± 0.4 %; BBB-PAMPA MR (membrane retention): 34.4 ± 0.6 %; BBB-PAMPA Pe (4 h, 100 µM): 31.3 ± 1.1 ·10^−7 cm/s; Met.stab. in HLM t1/2 ([12]; human): 4.34 ± 0.01 min; Met.stab. in HLM Cl'int [12]: 71.8 ± 0.1 mL/min/kg
